Here are results for 22 molecules from ChEMBL document CHEMBL5236550, “Small molecule selenium-containing compounds: Recent development and therapeutic applications” (Eur J Med Chem, 2021).

Each structure is given as a SMILES string. In brackets after ≈: the same amount, converted by molar mass.

The term IC50 denotes the concentration that gives 50% inhibition. The term Ki denotes a dissociation constant, usually derived from enzyme kinetics or from competition with a known ligand.

The subject of assay [1] is MCF7. Description: Anticancer activity against human MCF7 cells assessed as cell growth incubation incubated for 72 hrs by MTT assay. Type of assay: functional, cell-based. The conditions noted are these: MCF7, 72 h. In general terms: Tetrazolium assays rely on reduction of a dye to a coloured formazan, in cell work by metabolically active cells.
The subject of assay [2] is PC-3. Description: Anticancer activity against human PC-3 cells assessed as cell growth incubation incubated for 72 hrs by MTT assay. Type of assay: functional, cell-based. The conditions noted are these: PC-3, 72 h.
Another assay deals with MDA-MB-231. Description: Anticancer activity against human MDA-MB-231 cells assessed as cell growth inhibition incubated for 72 hrs by MTT assay. Type of assay: functional, cell-based. The conditions noted are these: MDA-MB-231, 72 h.
The subject of assay [3] is MCF7. Description: Anticancer activity against human MCF7 cells assessed as cell growth inhibition incubated for 72 hrs by MTT assay. Type of assay: functional, cell-based. The note with it: MCF7, 72 h.
The test system of assay [4] is MCF7. Description: Anticancer activity against human MCF7 cells assessed as cell growth inhibition incubated for 48 hrs by MTT assay. It is filed as functional, cell-based. The note with it: MCF7, 48 h.
A short description of assay [5]: Antitumor activity against human 1205Lu cells xenografted with mouse assessed as reduction in tumor volume at 0.127 uM, ip administered alternate days for 4 week relative to control. Type of assay: functional. Also noted: scale not given: the % may be the effect or the level left. The conditions noted are these: time 4 weeks.
Another assay concerns UACC-903. Kind of assay: Antitumor activity against human UACC-903 cells xenografted with mouse assessed as reduction in tumor volume at 0.127 uM, ip administered alternate days for 4 week relative to control. It is filed as functional. Details: scale not given: the % may be the effect or the level left. The note with it: time 4 weeks. For orientation: In xenograft studies the graft and the host belong to different species.

The nature of assay [6]: Anticancer activity against human WM35 cells assessed as cell growth inhibition incubated for 72 hrs by MTS assay. It is filed as functional, cell-based. The conditions noted are these: WM35, 72 h, pooled result: one value given for 4 cell lines, strains, targets or settings.
Assay [7] deals with Candida albicans. Kind of assay: Antifungal activity against Candida albicans ATC90028 assessed as […] growth inhibition. It is filed as functional.
Assay [8] has as its system Candida albicans. Description: Antifungal activity against Candida albicans ATC90028 assessed as zone of inhibition. Type of assay: functional.
In a further assay the test system is Pichia kudriavzevii. Kind of assay: Antifungal activity against Candida krusei assessed as fungal growth inhibition incubated for 24 to 48 hrs by microdilution method. The note with it: time 24-48 hrs. It is filed as functional.
Assay [9] relates to MCF7. Description: Anticancer activity against human MCF7 cells assessed as cell growth inhibition incubated for 24 hrs by ELISA based CCK8 assay. It is filed as functional. The note with it: MCF7, 24 h. On the technique in general: ELISA stands for enzyme-linked immunosorbent assay.
A further assay relates to PC-3M. Description: Anticancer activity against human PC-3M cells assessed as cell growth inhibition incubated for 24 hrs by MTT assay. It is filed as functional, cell-based.
Assay [10] relates to Encephalomyocarditis virus. Kind of assay: Antiviral activity against Encephalomyocarditis virus infected in A549 cells assessed as viral growth inhibition incubated for 1 hrs. It is filed as functional, organism-based. The conditions noted are these: Cardiovirus A, A549, 1 h.
In another assay the test system is Human alphaherpesvirus 1. Description: Antiviral activity against Herpes simplex virus 1infected in A549 cells assessed as viral growth inhibition incubated for 1 hrs. It is filed as functional.
For the next assay, the system named is SH-SY5Y. Kind of assay: Anticancer activity against human SH-SY5Y cells assessed as cell viability incubated for 24 hrs by MTT assay relative to control. It is filed as functional.
Assay [11] in a line: Anticancer activity against human PMNL assessed as cell growth inhibition. Type of assay: functional, cell-based.
A further assay concerns the target Carbonic anhydrase 2 (Homo sapiens, UniProt P00918). Kind of assay: Inhibition of human carbonic anhydrase 2 assessed as inhibition constant.
In a further assay the target is Carbonic anhydrase 1 (Homo sapiens, UniProt P00915). Description: Inhibition of human carbonic anhydrase 1 assessed as inhibition constant.
Carbonic anhydrase 1, sequence (P00915 whole entry): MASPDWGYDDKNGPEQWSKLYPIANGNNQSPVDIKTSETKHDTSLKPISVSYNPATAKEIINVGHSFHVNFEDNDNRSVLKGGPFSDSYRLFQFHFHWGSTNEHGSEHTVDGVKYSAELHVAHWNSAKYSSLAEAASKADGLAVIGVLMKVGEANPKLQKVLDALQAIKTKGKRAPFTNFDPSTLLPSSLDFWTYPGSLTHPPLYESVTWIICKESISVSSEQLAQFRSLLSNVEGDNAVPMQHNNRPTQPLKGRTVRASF
A further assay has as its system T47D. Description: Anticancer activity against human T47D cells assessed as cell growth inhibition. Type of assay: functional, cell-based.
The test system of assay [12] is MCF7. Description: Anticancer activity against human MCF7 cells assessed as cell growth inhibition. Type of assay: functional, cell-based.
The next assay deals with LNCaP C4-2. Description: Anticancer activity against human LNCaP C4-2 cells assessed as cell growth inhibition incubated for 24 hrs by MTT assay. Type of assay: functional, cell-based. The conditions noted are these: LNCaP C4-2, 24 h.
The next assay has as its system LNCaP. Kind of assay: Anticancer activity against human LNCaP cells assessed as cell growth inhibition incubated for 1.5 hrs by MTT assay. Type of assay: functional, cell-based.
Assay [13] concerns MCF7. Kind of assay: Anticancer activity against human MCF7 cells assessed as cell growth inhibition measured upto 72 hrs by MTT assay. It is filed as functional, cell-based. The note with it: MCF7, 72 h.
The next assay deals with BGC-823. Kind of assay: Anticancer activity against human BGC-823 cells assessed as cell growth inhibition measured upto 72 hrs by MTT assay. Type of assay: functional, cell-based. The conditions noted are these: BGC-823, 72 h.
Assay [14] has as its system PC-3. Kind of assay: Anticancer activity against human PC-3 cells assessed as cell growth inhibition measured upto 72 hrs by MTT assay. The conditions noted are these: PC-3, 72 h. It is filed as functional, cell-based.
The test system of a further assay is Caco-2. Kind of assay: Anticancer activity against human Caco-2 cells assessed as cell growth inhibition measured upto 72 hrs by MTT assay. Type of assay: functional, cell-based. The note with it: Caco-2, 72 h.
The next assay relates to A549. Kind of assay: Anticancer activity against human A549 cells assessed as cell growth inhibition measured after 6 days by SRB assay. It is filed as functional, cell-based. The note with it: A549, 144 h.
For another assay, the system named is DU-145. Kind of assay: Anticancer activity against human DU-145 cells assessed as cell growth inhibition measured after 6 days by SRB assay. The conditions noted are these: DU-145, 144 h. It is filed as functional, cell-based.
The next assay has as its system UACC-375. Description: Anticancer activity against human UACC-375 cells assessed as cell growth inhibition measured after 6 days by SRB assay. Type of assay: functional, cell-based.
A further assay concerns Plasmodium falciparum. Kind of assay: […] inhibition incubated for 72 hrs by light microscopic analysis. Type of assay: functional, organism-based. The conditions noted are these: K-1, 72 h.
A further assay relates to MCF7S. Kind of assay: Anticancer activity against human MCF7S cells assessed as cell growth inhibition measured after 6 days by SRB assay. It is filed as functional. The conditions noted are these: time 6 day.
The next assay relates to HT-29. Kind of assay: Anticancer activity against human HT-29 cells assessed as cell growth inhibition measured after 6 days by SRB assay. Type of assay: functional, cell-based. The note with it: HT-29, 144 h.
A further assay relates to HepG2. Kind of assay: Anticancer activity against human HepG2 cells assessed as cell growth inhibition incubated for 48 hrs. Type of assay: functional, cell-based. The conditions noted are these: HepG2, 48 h.
The subject of a further assay is HeLa. Kind of assay: Anticancer activity against human HeLa cells assessed as cell growth inhibition incubated for 48 hrs. Type of assay: functional, cell-based.

In the case of `O=C(O)C[Se]C(=O)c1ccccc1`, the 50% inhibitory concentration (IC50) with MCF7 [1] came to 0.09 µM; with PC-3 [2] it was 6.8 µM.
On to `Brc1ccc2nc(-c3ccc4n[se]nc4c3)[nH]c2c1`, for which the values for the IC50 with MDA-MB-231 and in the assay with MCF7 [3] were 1.3 µM and 15.5 µM, respectively.
As to `CCNCc1ccccc1[Se][Se]c1ccccc1CNCC`, in the assay on MCF7 [4], the half-inhibitory concentration (IC50) worked out at 15 µM.
For the molecule `O=C(O)C[Se]C(=O)c1cccnc1Cl`, the IC50 in the assay on MCF7 [1] is 0.003 µM; with PC-3 [2] it was 10 µM.
`NC(CCC(=O)NC(CS[Se]Cc1cc(-c2ccccc2)n(-c2ccc(S(N)(=O)=O)cc2)n1)C(=O)NCC(=O)O)C(=O)O` (centres undefined): the Activity (in assay [5]; with UACC-903) was 70% throughout. Also, the half-inhibitory concentration (IC50) in assay [6] was determined as 7.66 µM.
Regarding `O=C(C[C@@H](c1ccc(Cl)cc1)[C@@H]1CCCc2[se]nnc21)c1ccc(Cl)cc1`, the MIC in the assay on Candida albicans [7] stood at 12.5 µg/mL (≈ 26.9 µM). Also, the “inhibition zone (IZ)” value with Candida albicans [8] was 15 mm.
On to `Brc1ccc(-c2c[se]c(NN=C3CCSCC3)n2)cc1`, for which the MIC in the assay on Pichia kudriavzevii is 3.91 µg/mL (≈ 9.42 µM).
For `Clc1ccc([Se][Se]c2ccc(Cl)nn2)nn1`, in the assay with MCF7 [9], the half-maximal inhibitory concentration (IC50) was 10.3 µM.
Consider `Cc1ccc(-c2cc(C(F)(F)F)nn2-c2ccc(S(N)(=O)=O)cc2)cc1` [CELECOXIB], for which the IC50 in assay [6] was 55.6 µM.
For the molecule `FC(F)(F)c1ccc(-c2c[se]c(NN=C3CCSCC3)n2)cc1`, the MIC in the assay with Pichia kudriavzevii amounted to 0.98 µg/mL (≈ 2.42 µM).
With `N#C[Se]Cc1cc(-c2ccccc2)n(-c2ccc(S(N)(=O)=O)cc2)n1`, in the assay on PC-3M, the 50% inhibitory concentration (IC50) was found to be 5 µM.
For the molecule `O=c1c2ccccc2[se]n1Cc1ccccc1`, the IC50 in [10] stood at 6 µg/mL (≈ 20.8 µM). In addition, the MIC with Human alphaherpesvirus 1 stood at 2 µg/mL (≈ 6.94 µM).
Turning to `C=CCn1[se]c2ccccc2c1=O`, the Activity in the assay on SH-SY5Y is 86%.
Take `CN(C)C(N)=[Se]`: the IC50 in assay [11] was 6.8 µM.
With `[Se]=P(c1ccccn1)(c1ccccn1)c1ccccn1`, the Ki amounted to 0.0537 µM on Carbonic anhydrase 2 and 0.0563 µM on Carbonic anhydrase 1.
In the case of `O=C(NC(=[Se])Nc1ccccc1)c1cccs1`, the IC50 in the assay with T47D is 6.1 µM; in the assay on MCF7 [12], 4.2 µM.
On to `N#C[Se]Cc1ccc(C[Se]C#N)cc1`, for which the IC50 was determined as 7.6 µM in the assay on LNCaP C4-2 and 7 µM in the assay on LNCaP.
Regarding `c1ccc2[nH]c(-c3ccc4n[se]nc4c3)nc2c1`, the concentration for half-maximal inhibition (IC50) stood at 12.3 µM in the assay on MDA-MB-231 and 15.4 µM in the assay with MCF7 [3].
Turning to `N#C[Se]CCCNC(=O)c1ccccc1Nc1cccc(C(F)(F)F)c1`, the concentration for half-maximal inhibition (IC50) in the assay with MCF7 [13], with BGC-823, with PC-3 [14] and with Caco-2 was 1.9 µM in each case.
Consider `C[Se]CC[C@H](N)C(=O)O` [SELENOMETHIONINE], for which the half-maximal inhibitory concentration (IC50) stood at 65 µM in the assay on A549; 40 µM in the assay with DU-145; 50 µM in the assay on UACC-375 (Homo sapiens, UACC-375, 144 h); 45 µM in the assay with Plasmodium falciparum; 130 µM in the assay with HT-29. Moreover, the IC5 in the assay with UACC-375 (time 6 day) came out at 50 µM; in the assay with MCF7S it was 45 µM.
As to `CN(C)c1ccc(/C=C/c2c3ccccc3c(/C=C/c3ccc(OCCCCCC[Se][Se]CCCCCCOc4ccc(/C=C/c5c6ccccc6c(/C=C/c6ccc(N(C)C)cc6)c6ccccc56)cc4)cc3)c3ccccc23)cc1`, the 50% inhibitory concentration (IC50) with HepG2 turned out to be 4.45 µM; in the assay on HeLa, 3.96 µM.
Consider `Cc1ccc2nc(-c3ccc4n[se]nc4c3)[nH]c2c1`, for which the results for the half-inhibitory concentration (IC50) with MDA-MB-231 and with MCF7 [3] were 1 µM and 4.1 µM, respectively.
